In patent US8754115B2, “Fungicidal pyrazoles” (E I du Pont de Nemours and Company, priority 2010, dated 2014):
Marks after values point to notes of the source that are not given here.

Assays:
Type in all cases: in vivo
[1] = system: Puccinia recondite f. sp. tritici; assay: Test E2: preventive spray on wheat seedlings, visual disease rating (wheat leaf rust)
Text: (§1) General protocol for preparing test suspensions for Tests A-F: the test compounds were first dissolved in acetone in an amount equal to 3% of the final volume and then suspended at the desired concentration (in ppm) in acetone and purified water (50/50 mix by volume) containing 250 ppm of the surfactant Trem® 014 (polyhydric alcohol esters). The resulting test suspensions were then used in Tests A-F. Spraying a 200 ppm test suspension to the point of run-off on the test plants was the equivalent of a rate of 800 g/ha. Unless otherwise indicated, the rating values indicate a 200 ppm test suspension was used. (An asterisk “*” next to the rating value indicates a 40 ppm test suspension was used.)
The test suspension was sprayed to the point of run-off on wheat seedlings. The following day the seedlings were inoculated with a spore suspension of Puccinia recondite f. sp. tritici (the causal agent of wheat leaf rust) and incubated in a saturated atmosphere at 20° C. for 24 h, and then moved to a growth chamber at 20° C. for 7 days, after which time visual disease ratings were made.
(§2) Results for Tests A-F are given in Table A. In the Table, a rating of 100 indicates 100% disease control and a rating of 0 indicates no disease control (relative to the controls). A dash (-) indicates no test results. An asterisk “*” next to the rating value indicates a 40 ppm test suspension was used.

Septoria tritici = assay: Test D: preventive spray on wheat seedlings, visual disease rating (wheat leaf blotch)
Text: as §1
The test suspension was sprayed to the point of run-off on wheat seedlings. The following day the seedlings were inoculated with a spore suspension of Septoria tritici (the causal agent of wheat leaf blotch) and incubated in saturated atmosphere at 24° C. for 48 h, and then moved to a growth chamber at 20° C. for 19 days, after which time visual disease ratings were made.
as §2

[2] = system: Blumeria graminis f. sp. tritici; assay: Test F: preventive spray on wheat seedlings, visual disease rating (wheat powdery mildew)
Text: as §1
The test suspension was sprayed to the point of run-off on wheat seedlings. The following day the seedlings were inoculated with a spore dust of Blumeria graminis f. sp. tritici, (also known as Erysiphe graminis f. sp. tritici, the causal agent of wheat powdery mildew) and incubated in a growth chamber at 20° C. for 8 days, after which time visual disease ratings were made.
as §2

Botrytis cinerea = assay: Test A: preventive spray on tomato seedlings, visual disease rating (tomato Botrytis)
Text: as §1
The test suspension was sprayed to the point of run-off on tomato seedlings. The following day the seedlings were inoculated with a spore suspension of Botrytis cinerea (the causal agent of tomato Botrytis) and incubated in saturated atmosphere at 20° C. for 48 h, and then moved to a growth chamber at 24° C. for 3 days, after which time visual disease ratings were made.
as §2

[3] = no asterisk: standard test suspension, not 40 ppm
[4] = no asterisk: standard test suspension, not 40 ppm, 100 = 100% disease control, 0 = none
[5] = asterisk: 40 ppm test suspension

Compound	Test E2 rating (% disease control) [1, 3] [%]	Test D rating (% disease control) (Septoria tritici; [3]) [%]	Test F rating (% disease control) [2, 3] [%]	Test A rating (% disease control) (Botrytis cinerea; [4]) [%]	Test E2 rating (% disease control) [1, 5]	Test D rating (% disease control) (Septoria tritici; [5])	Test F rating (% disease control) [2, 5]	Test A rating (% disease control) (Botrytis cinerea; [5])
Cc1nn(C)c(-c2ccc(F)cc2Cl)c1C(O)c1ccc(F)cc1I (centres unmarked) [compound 99]	100	100	99	97				
Cc1nn(C)c(-c2c(F)cccc2F)c1C(SC#N)c1ccc(F)cc1F (centres unmarked) [Compound 115]					94* %	100* %	99* %	88* %
Cc1cc(F)ccc1C(O)c1c(C)nn(C)c1-n1ccnc1Cl (centres unmarked) [compound 150]	9	0	0	8				
COc1nn(C)c(-c2ccc(F)cc2Cl)c1C(O)c1ccc(F)cc1Cl (centres unmarked) [compound 118]	99	100	100	100				
Cn1nc(Cl)c(C(O)c2ccc(F)cc2Br)c1-c1c(F)cccc1Cl (centres unmarked) [compound 134]	100	100	99	100				
COc1cc(F)c(-c2c(C(O)c3ccc(F)cc3F)c(C)nn2C)c(F)c1 (centres unmarked) [compound 172]					100* %	100* %	100* %	99* %
COc1nn(C)c(-c2c(F)cccc2F)c1C(O)c1ccc(F)cc1Cl (centres unmarked) [compound 126]	100	100	100	100				
Cc1nn(C)c(-c2ccc(Cl)cc2Cl)c1C(O)c1ccc(F)cc1F (centres unmarked) [compound 97]	100	100	99	99				
Cc1nn(C)c(-c2c(F)cncc2F)c1C(O)c1ccc(F)cc1F (centres unmarked) [compound 168]					88* %	100* %	100* %	21* %
Cn1nc(Cl)c(C(O)c2ccc(F)cc2Cl)c1-c1c(F)cccc1F (centres unmarked) [compound 137]	100	100	100	100				
Cc1nn(C)c(-c2c(F)cccc2Br)c1C(O)c1ccc(F)cc1Cl (centres unmarked) [compound 94]	100	100	100	99				
Cc1nn(C)c(-c2c(F)cccc2Cl)c1C(SC#N)c1ccc(F)cc1Cl (centres unmarked) [Compound 121]					100* %	100* %	100* %	97* %
Cc1nn(C)c(-c2c(F)cncc2F)c1C(O)c1ccc(F)cc1Cl (centres unmarked) [compound 166]					99* %	100* %	93* %	99* %
Cc1nn(C)c(-c2ccc(Cl)cc2Cl)c1C(O)c1ccc(F)cc1Cl (centres unmarked) [compound 100]	100	100	99					
Cc1cc(F)ccc1C(O)c1c(Br)nn(C)c1-c1c(F)cccc1F (centres unmarked) [compound 165]	100	100	100	100				
COc1cc(F)c(-c2c(C(O)c3ccc(F)cc3Cl)c(C)nn2C)c(F)c1 (centres unmarked) [compound 171]					100* %	100* %	89* %	100* %
Cc1nn(C)c(-c2c(F)cccc2Cl)c1C(SC#N)c1ccc(F)cc1F (centres unmarked) [Compound 122]					100* %	100* %	99* %	98* %
CC(=O)OC(c1ccc(F)cc1Cl)c1c(C)nn(C)c1-c1c(F)cccc1F (centres unmarked) [Compound 108]					100* %	100* %	100* %	99* %
Cn1nc(Cl)c(C(O)c2ccc(F)cc2F)c1-c1c(F)cccc1Cl (centres unmarked) [compound 133]	100	100	99	100				
Cn1nc(Br)c(C(O)c2ccc(F)cc2Br)c1-c1ccc(F)cc1Cl (centres unmarked) [compound 164]	100	100	0	100				
COc1ccc(C(O)c2c(C)nn(C)c2-c2ccc(F)cc2Cl)c(Cl)c1 (centres unmarked) [compound 169]					88* %	68* %	0* %	0* %
Cn1ncc(C(O)c2ccc(F)cc2Cl)c1-c1c(F)cccc1F (centres unmarked) [compound 130]	100	100	100	100				
Cc1nn(C)c(-c2ccc(F)cc2)c1C(O)c1ccc(F)cc1Cl (centres unmarked) [compound 105]					98* %	100* %	81* %	0* %
Cc1nn(C)c(-c2ccc(F)cc2Br)c1C(O)c1ccc(F)cc1Cl (centres unmarked) [compound 95]					98* %	99* %	95* %	94* %
COc1nn(C)c(-c2c(F)cccc2F)c1C(O)c1c(F)ccc(F)c1F (centres unmarked) [compound 138]					55* %	16* %	93* %	66* %
Cc1cc(C)n(-c2c(C(O)c3ccc(F)cc3C)c(C)nn2C)n1 (centres unmarked) [compound 158]	0	8	13	0				
COc1cc(F)c(-c2c(C(O)c3c(F)cc(F)cc3F)c(C)nn2C)c(F)c1 (centres unmarked) [compound 173]					100* %	100* %	95* %	87* %
Cc1nn(C)c(-c2ccc(Cl)cc2Cl)c1C(O)c1ccc(Cl)cc1F (centres unmarked) [compound 101]	99	100	72					
